Values of other authors in patent US20070207452A1, “Method of detecting micronucleus in cell” (Olympus Corporation, priority 2004, published 2007).

Tested on: bacteria
Settings: background statement; carcinogenic substances detected by the chromosomal aberration test

Row | SMILES | result in the reverse mutation test
1 | c1ccccc1 [benzene] | negative
2 | CC/C(=C(/CC)c1ccc(O)cc1)c1ccc(O)cc1 [diethylstilbestrol] | negative
